# Laboratory results: US20120264799A1, “INDANE-AMINE DERIVATIVES, THEIR PREPARATION AND USE AS MEDICAMENTS” (LABORATORIOS DEL DR. ESTEVE ,S.A., priority 2009, published 2012)
# Target: T1, Cloned Human Serotonin Receptor, Subtype 7 (h5HT7) (Homo sapiens, UniProt P34969)
# T1 construct: purchased PerkinElmer 6120512; host or cells: CHO cells
# Assay: Radioligand binding assay, [125I]LSD, Flashplate
# Conditions: h5HT7 expressed in CHO cells; radioligand [125I]LSD 0.82 nM; 240 min at room temperature; read-out: 5-HT7 Ki
# Protocol: Radioligand binding assays were performed using the Cloned Human Serotonin Receptor, Subtype 7 (h5HT7), expressed in CHO cells, coated on Flashplate (Basic FlashPlate Cat.: SMP200) from PerkinElmer (Cat.: 6120512). The protocol assay was essentially the recommended protocol in the Technical Data Sheet by PerkinEmer Life and Analytical Sciences. The Mass membrane protein/well was typically […] and the Receptor/well was about 9-10 fmoles. The Flashplate were let equilibrate at room temperature for one hour before the addition of the components of the assay mixture. The binding buffer was: 50 mM Tris-HCl, pH 7.4, containing 10 mM MgCl2, 0.5 mM EDTA and 0.5% BSA. The radioligand was [^125l]LSD at a final concentration of 0.82 nM. Nonspecific binding was determined with 50 µM of Clozapine. The assay volume was […]. […] The radioactivity were quantified by liquid scintillation spectrophotometry (Wallac 1450 Microbeta Trilux) with a count delay of 4 minutes prior to counting and a counting time of 30 seconds per well. Competition binding data were analyzed by using the LIGAND program (Munson and Rodbard, LIGAND: A versatile, computerized approach for characterization of ligandbinding systems. Anal. Biochem. 107: 220-239, 1980) and assays were performed in triplicate determinations for each point.
# T1 sequence (P34969 whole entry): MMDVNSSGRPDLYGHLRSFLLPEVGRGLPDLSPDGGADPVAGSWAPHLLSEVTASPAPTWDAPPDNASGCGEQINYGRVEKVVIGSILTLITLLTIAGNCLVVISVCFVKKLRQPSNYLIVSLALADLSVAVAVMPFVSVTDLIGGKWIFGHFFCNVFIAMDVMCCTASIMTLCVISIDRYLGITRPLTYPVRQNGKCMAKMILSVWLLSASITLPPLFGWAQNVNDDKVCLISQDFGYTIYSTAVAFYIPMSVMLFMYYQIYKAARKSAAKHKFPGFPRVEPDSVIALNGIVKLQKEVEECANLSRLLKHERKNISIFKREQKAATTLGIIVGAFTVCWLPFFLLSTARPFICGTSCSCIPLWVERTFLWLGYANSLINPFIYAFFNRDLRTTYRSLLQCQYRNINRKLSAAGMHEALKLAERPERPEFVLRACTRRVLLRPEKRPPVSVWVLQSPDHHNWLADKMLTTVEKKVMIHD
row,Structure (SMILES),Ki
1,"Cc1nn(C(C)C)c(-c2ccc3c(c2)C(N(C)C)CC3)c1C (centres unmarked) [Example 9, 6-(1-lsopropyl-3,4-dimethyl-1H-pyrazol-5-yl)-N,N-dimethyl-2,3-dihydro-1H-inden-1-amine]",360 nM
2,"Cc1nn(C)c(-c2ccc3c(c2)C(N(C)C)CC3)c1C (centres unmarked) [Example 3, N,N-dimethyl-6-(1,3,4-trimethyl-1H-pyrazol-5-yl)-2,3-dihydro-1H-inden-1-amine]",425 nM
